Experimental data published in US11273168B2, “Methods of treating anxiety by administering a substituted quinolone” (OTSUKA PHARMACEUTICAL CO., LTD., priority 2010, dated 2022).
Like-named read-outs stand apart in the source and are kept apart here.

How the values were obtained:
Format in all cases: biochemical
Serotonin (5-HT) uptake = target: T1, Serotonin (5-HT) uptake (Rattus norvegicus, UniProt P31652); experiment: Serotonin (5-HT) uptake inhibitory activity using rat brain synaptosome (frontal cortex); conditions: tritium-labeled 5-HT 8 nM, 37° C. 10 minutes
T1 construct: The suspension was used as a crude synaptosome fraction; from tissue; host or cells: rat (male Wistar) frontal cortex, crude synaptosome fraction
Method: Measurement of Serotonin (5-HT) Uptake Inhibitory Activity of Test Compound Using Rat Brain Synaptosome
(§1) Male Wistar rats were decapitated, and their brains were removed and dissected to remove the frontal cortex. The separated frontal cortex was placed in a 20-fold weight of a 0.32 molarity (M) sucrose solution and homogenized with a potter homogenizer. The homogenate was centrifuged at 1000 g at 4° C. for 10 minutes, and the supernatant was further centrifuged at 20000 g at 4° C. for 20 minutes. […] The suspension was used as a crude synaptosome fraction.
(§2) Uptake reaction was performed using each well of a 96-well round-bottom plate and a 200 μl volume in total of a solution containing pargyline (final concentration: 10 μM) and ascorbic acid (final concentration: 0.2 mg/ml).
(§3) Specifically, a solvent, unlabeled 5-HT, and serially diluted test compounds were separately added to the wells, and the synaptosome fraction was added in an amount 1/10 of the final volume to each well and preincubated at 37° C. for 10 minutes. Then, a tritium-labeled 5-HT solution (final concentration: 8 nM) was added thereto to initiate uptake reaction at 37° C. 10 minutes later, the uptake reaction was terminated by suction filtration through a 96-well glass fiber filter plate. Furthermore, the filter was washed with a cold saline and then sufficiently dried. MicroScint-O (PerkinElmer Co., Ltd.) was added thereto, and the residual radioactivity on the filter was measured.
(§4) An uptake value obtained by the addition of only the solvent was defined as 100%, and an uptake value (nonspecific uptake value) obtained by the addition of the unlabeled 5-HT (final concentration: 10 μM) was defined as 0%. A 50%, inhibitory concentration was calculated from the test compound concentrations and inhibitory activities thereat.

[1] = target: Norepinephrine (NE) uptake (Rattus norvegicus, UniProt Q9WTR4); experiment: Norepinephrine (NE) uptake inhibitory activity using rat brain synaptosome (hippocampus)
Method: Measurement of Norepinephrine (NE) Uptake Inhibitory Activity of Test Compound Using Rat Brain Synaptosome
Male Wistar rats were decapitated, and their brains were removed and dissected to remove the hippocampus. The separated hippocampus was placed in a 20-fold weight of a 0.32 molarity (M) sucrose solution and homogenized with a potter homogenizer. The homogenate was centrifuged at 1000 g at 4° C. for 10 minutes, and the supernatant was further centrifuged at 20000 g at 4° C. for 20 minutes. The pellet was suspended in an incubation buffer (20 mM HEPES buffer (pH 7.4) containing 10 mM glucose, 145 mM sodium chloride, 4.5 mM potassium chloride, 1.2 mM magnesium chloride, and 1.5 mM calcium chloride). The suspension was used as a crude synaptosome fraction.
as §2
as §3, with “unlabeled NE,” for “unlabeled 5-HT,”, “tritium-labeled NE” for “tritium-labeled 5-HT”, “concentration: 12” for “concentration: 8”, “C. Ten” for “C. 10”
as §4, with “NE” for “5-HT”, “50%” for “50%,”

Dopamine (DA) uptake = target: T2, Dopamine (DA) uptake (Rattus norvegicus, UniProt P23977); experiment: Dopamine (DA) uptake inhibitory activity using rat brain synaptosome (corpus striatum); conditions: tritium-labeled DA 2 nM, 37° C. ten minutes, read-out: 50% Inhibitory concentration
T2 construct: The suspension was used as a crude synaptosome fraction; from tissue; host or cells: rat (male Wistar) corpus striatum, crude synaptosome fraction
Method: Measurement of Dopamine (DA) Uptake Inhibitory Activity of Test Compound Using Rat Brain Synaptosome
as §1, with “corpus striatum.” for “frontal cortex.”, “corpus striatum” for “frontal cortex”
Uptake reaction was performed using each well of a 96-well round-bottom plate and a 200 μl volume in total of a solution containing pargyline (final concentration: 10 μM) and ascorbic acid (final concentration: 0.2 mg/mil).
as §3, with “unlabeled DA,” for “unlabeled 5-HT,”, “tritium-labeled DA” for “tritium-labeled 5-HT”, “concentration: 2” for “concentration: 8”, “C. Ten” for “C. 10”
as §4, with “DA” for “5-HT”, “50%” for “50%,”

[2] = read-out: 50% Inhibitory concentration
[3] = tritium-labeled NE 12 nM, 37° C. ten minutes, read-out: 50% inhibitory concentration

T2 sequence (P23977 whole entry): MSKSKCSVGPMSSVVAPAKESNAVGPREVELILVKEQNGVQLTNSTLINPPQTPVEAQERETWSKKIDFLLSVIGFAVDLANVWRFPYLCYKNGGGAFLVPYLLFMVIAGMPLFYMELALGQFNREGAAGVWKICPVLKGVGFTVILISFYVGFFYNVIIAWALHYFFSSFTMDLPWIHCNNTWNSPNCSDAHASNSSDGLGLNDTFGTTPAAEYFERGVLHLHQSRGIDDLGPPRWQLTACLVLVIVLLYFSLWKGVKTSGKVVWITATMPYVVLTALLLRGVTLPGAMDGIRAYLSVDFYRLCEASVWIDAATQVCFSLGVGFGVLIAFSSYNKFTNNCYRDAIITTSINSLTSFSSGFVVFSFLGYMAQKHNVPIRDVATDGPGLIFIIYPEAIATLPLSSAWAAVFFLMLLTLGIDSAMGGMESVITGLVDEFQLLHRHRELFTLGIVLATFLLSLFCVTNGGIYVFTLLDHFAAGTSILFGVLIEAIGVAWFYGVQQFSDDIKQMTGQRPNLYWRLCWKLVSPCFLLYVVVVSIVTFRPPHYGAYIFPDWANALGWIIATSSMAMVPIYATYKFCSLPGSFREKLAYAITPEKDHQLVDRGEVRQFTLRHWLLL
T1 sequence (P31652 whole entry): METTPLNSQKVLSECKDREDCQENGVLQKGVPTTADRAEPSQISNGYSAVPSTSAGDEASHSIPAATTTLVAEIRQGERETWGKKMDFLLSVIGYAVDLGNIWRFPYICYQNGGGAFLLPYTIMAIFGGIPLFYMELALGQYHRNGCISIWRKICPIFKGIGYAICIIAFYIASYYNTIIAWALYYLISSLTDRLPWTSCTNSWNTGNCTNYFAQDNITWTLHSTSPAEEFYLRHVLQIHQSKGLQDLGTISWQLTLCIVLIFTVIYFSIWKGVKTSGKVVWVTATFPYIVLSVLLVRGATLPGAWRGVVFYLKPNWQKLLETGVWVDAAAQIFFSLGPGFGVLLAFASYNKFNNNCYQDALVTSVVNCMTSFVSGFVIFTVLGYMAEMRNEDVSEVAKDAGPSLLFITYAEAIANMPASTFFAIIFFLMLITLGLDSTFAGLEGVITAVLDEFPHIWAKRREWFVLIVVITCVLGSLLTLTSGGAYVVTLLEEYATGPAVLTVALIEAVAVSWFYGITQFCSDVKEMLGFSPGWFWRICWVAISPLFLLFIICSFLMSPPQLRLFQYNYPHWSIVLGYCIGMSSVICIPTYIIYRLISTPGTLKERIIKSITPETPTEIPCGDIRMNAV

| Structure (SMILES) | IC50 (Serotonin (5-HT) uptake; [2]) | IC50 [1, 3] | IC50 (Dopamine (DA) uptake) | IC50 (Serotonin (5-HT) uptake; 50% Inhibitory concentration) | IC50 ([1]; read-out: 50% inhibitory concentration, tritium-labeled NE 12 nM, 37° C. ten minutes) |
| --- | --- | --- | --- | --- | --- |
| CC1(C)CN(c2cccc3ncccc23)[C@H]2CCCC[C@H]2N1 [Example 120] |  |  | 187 nM | 9.2 nM | 9.2 nM |
| CC1(C)CN(c2ccc3cc(OC(F)F)ccc3c2)[C@H]2CCCC[C@@H]2N1 [Example 867] | 4.7 nM | 11.7 nM | 85.7 nM |  |  |
| Cn1c(C#N)cc2cc(N3CC(C)(C)N[C@@H]4CCCC[C@@H]43)ccc21 [Example 150, 5-((4aR,8aS)-3,3-dimethyldecahydroquinoxalin-1-yl)-1-methyl-1H-indole-2-carbonitrile] | 5.4 nM | 23.6 nM | 200 nM |  |  |
| CC1(C)CN(c2ccc(O)cc2)[C@H]2CCCC[C@H]2N1 [Example 805] | 42.6 nM | 30.4 nM | 83.8 nM |  |  |
| CC1(C)CN(c2ccc(Cl)c(Cl)c2)C2CCCC2N1 (stereo not drawn) [Example 10] | 6.2 nM | 8.8 nM | 64.8 nM |  |  |
| CC1(C)CN(c2ccc3cc[nH]c3c2)[C@H]2CCCC[C@H]2N1 [Example 2, (4aR,8aS)-1-(1H-indol-6-yl)-3,3-dimethyldecahydroquinoxaline] | 7.1 nM | 4.6 nM | 85.9 nM |  |  |

Second part, led by results:

| IC50 (Serotonin (5-HT) uptake; [2]) | IC50 [1, 3] | IC50 (Dopamine (DA) uptake) | Structure (SMILES) | IC50 (Serotonin (5-HT) uptake; 50% Inhibitory concentration) | IC50 ([1]; read-out: 50% inhibitory concentration, tritium-labeled NE 12 nM, 37° C. ten minutes) |
| --- | --- | --- | --- | --- | --- |
| 4.5 nM | 5.1 nM | 46.5 nM | COc1ccc(N2CC3(CCC3)N[C@H]3CCCC[C@H]32)c2ccoc12 [Example 579, (4a′R,8a′S)-4′-(7-methoxybenzofuran-4-yl)octahydro-1′H-spiro[cyclobutane-1,2′-quinoxaline]] |  |  |
| 6.5 nM | 0.6 nM | 4.3 nM | CC1(C)CN(c2ccc(F)c3[nH]ccc23)[C@H]2CCCC[C@H]2N1 [Example 780] |  |  |
| 8.8 nM | 3.1 nM | 3.9 nM | CN1[C@@H]2CCCC[C@@H]2N(c2cccc3occc23)CC1(C)C [Example 132] |  |  |
| 4.2 nM | 4.8 nM | 60.1 nM | CC1(C)CN(c2csc3ccccc23)[C@@H]2CCCC[C@@H]2N1 [Example 717] |  |  |
